Among the data in a melting point compilation (Tetko et al.; mined from patent text by program, amines drawn as free bases though some values may be those of a salt) are melting point values, retold here.

Molecules are shown by their SMILES.

For the compound `CCOC(=O)[C@H](CCc1ccccc1)N[C@@H](C)C(=O)N1CC2(C[C@H]1C(=O)O)SCCS2`, the melting point (in general, the temperature of the solid-liquid transition) is 124 to 126 °C. Next, `Cn1ncc(C(=O)NC2COC2)c1C(=O)Nc1ccn2nc(-c3ccccc3)nc2c1`: > 250 °C; `N#Cc1cccc(-c2cc(-c3cc(C#N)ccc3[N+](=O)[O-])no2)c1`: 225 to 227 °C. In the case of `O=C(c1ccc(F)cc1)c1cccc(C#Cc2ccc(F)cc2)c1` it was 127 to 128 °C. Next, `CCC(=S)NC[C@H]1CN(c2ccc(N3CCN(C(=O)COc4ccc(CN5CCOCC5)cc4)CC3)c(F)c2)C(=O)O1`: 159 to 160 °C. In the case of `COCCN1CCN(CCc2ccc(Nc3ncc4c(n3)-c3ccccc3C(c3ccccc3)C4)cc2)CC1` (configuration not stated), the melting point is 52 to 54 °C. In the case of `CC(C)(C)OC(=O)N1CCN(C(=O)N2CCC(c3[nH]nc4c3C(=O)c3c(NC(=O)NN5CCOCC5)cccc3-4)CC2)CC1` it was 231 to 232 °C; in that of `CCOC(=O)c1cn(Cc2ccccc2)c2c(OC)c(F)c(F)c(N)c2c1=O`, 134 to 135 °C; in that of `CCn1c(-c2ccc(-n3ccnc3)cc2)cnc1[C@H](Cc1ccccn1)N(C=O)c1cc2cc(F)ccc2o1`, 80 to 84 °C.

As to `Clc1ccc2c(c1)c(-c1ccccc1)nn1cnnc21`, the melting point lay within 189 to 190 °C.

In turn, `COc1ccc(C2CC(=O)C(=C3SC4NCCNC4S3)C(=O)C2)cc1` (configuration not stated) showed a melting point of 160 to 162 °C. Next, `c1ccc(-c2cn(-c3ncc(C4CCCCC4)c4ccccc34)cn2)cc1`: 169 to 170 °C. Next, `CCOC(=O)C1(C(=O)OCC)CCC2(CC1)NCCc1cc(OC)c(OC)cc12`: 103 to 104 °C; `CN(C)NC(=O)NC(C(=O)O)c1cccs1` (configuration not stated): 208 to 210 °C; `CCCCCCCCCCC[C@]1(C)OO[C@@H]2C[C@H]1CC(=O)[C@@H]2C`: 42 °C. Next, `C=CCc1cc(C(=O)CC(=O)C(C)(C)C)cc(OC)c1O`: 115 to 116 °C; `CCCCCCCCN(C(=O)Nc1ccc(C(=O)O)cc1)c1ccc2c(c1)C(C)(C)CCC2(C)C`: 166 to 167 °C; `CCN(CC)c1cc(C)nc(Oc2c(C)cc(Cl)cc2C)c1C`: 184 to 185 °C. As for `OC1CSC(Oc2ccccn2)C(O)C1O` (configuration not stated), the melting point was determined as 196 °C. In the case of `CN1c2ccc(Cl)cc2C(c2ccccc2[N+](=O)[O-])=Nc2cccnc21` it was 165 to 166 °C; in that of `CC1(C)CC(=O)c2c(N3CCC3)sc(-c3cc[nH]n3)c2C1`, 263 to 265 °C; in that of `CNC(=S)NCCSCc1c[nH]cn1`, 96 to 98 °C. Next, `CCCS(=O)c1ccc([N+](=O)[O-])c(N)c1` (configuration not stated): 128 to 130 °C. `CN(C)Nc1c([N+](=O)[O-])cc(C(F)(F)F)c(Cl)c1[N+](=O)[O-]` returned a melting point of 130 to 131 °C. In the case of `CCCC1(C(C)(C)C(=O)Oc2ccc(N)cc2)C(=O)NC(=O)NC1=O` it was 212 to 215 °C; in that of `CCn1cc(-c2nc(C#N)c(N)nc2-c2ccccc2)ccc1=O`, 193 to 199 °C; in that of `COC(=O)c1cn(-c2ccccc2Oc2ccc(C)cc2O)nn1`, 153 to 155 °C. The compound `NC(CO)(CO)C(=O)O` came in with a melting point of 109 to 112 °C. In turn, `COCCCN1CCC(CNC(=O)c2cc(Cl)c(N)c(OC)c2OC)C(O)C1` (configuration not stated) gave a melting point of 110 °C. For the compound `CC(C)(C)c1cc(CCC(=O)NN2C(=O)C=CC2=O)cc(C(C)(C)C)c1O`, the melting point lay in the range of 90 to 94 °C. The compound `c1cn(CCCCn2ccnc2)cn1` gave a melting point of 84 to 86 °C. Compound `CC1=CCc2c1sc1c2CN(c2ccccc2Cl)CC2N(C(=O)O)CCN12` (configuration not stated) came in with a melting point of 160 to 162 °C.

For `ClCc1nc2ccccc2s1`, the melting point turned out to be 34 °C.

In turn, `NC(=O)c1cccc(-c2cccc3cc(Cc4cccc(C(F)(F)F)c4)sc23)c1` showed a melting point of 153 to 154 °C. In the case of `CS(=O)(=O)c1ccc(-c2nc3n(c2-c2ccncc2)CCC3)cc1` it was 222 to 224 °C; in that of `Cc1ncccc1Oc1ccc(C(=N)Nc2cc(Cl)cc(NC(=O)C=Cc3ccccc3C(F)(F)F)c2)cc1`, 114 to 119 °C; in that of `Cc1ccc2nc(-c3cc(C(F)(F)C(F)(F)F)nn3-c3ccc(S(C)(=O)=O)cc3)sc2c1`, 195 to 196 °C. Next, `Cc1ccccc1N1CCN(CC(O)c2ccc(N3CCCNC3=O)cc2)CC1` (configuration not stated): 234 to 235 °C. In the case of `CN(C)N=C(CCC(=O)O)c1ccc(-c2ccc(Cl)cc2)cc1` it was 158 to 160 °C. In turn, `CC1(C)C(=O)OC2=C1CC(OS(C)(=O)=O)C=C2` (configuration not stated) had a melting point of 120 to 121 °C. Next, `COc1ccc(CC(NC(c2ccccc2)c2ccccc2)P(O)O)cc1` (configuration not stated): 199 to 202 °C.

On to `CNC1=NS(=O)(=O)N=C1NCCSCc1nc[nH]c1C`, for which the melting point lay in the range of 98 to 110 °C. Next, `Cc1c(C#N)oc2c(-c3ccc(F)cc3)c(-c3ccc(S(N)(=O)=O)cc3)nn12`: 231 to 232 °C. In the case of `CCCCc1nc2cccc(C(=O)OC)c2n1Cc1ccc(-c2ccccc2-c2nc(=S)o[nH]2)cc1` it was 180 to 181 °C. In turn, `CC(C)n1nc(-c2c(NCc3ccccn3)nc(N)nc2-c2ccc(F)cc2)ccc1=O` registered a melting point of 210 to 212 °C. In the case of `CCCCCCc1ccc(-c2ccc(C3CCC(C#N)(CCCCCC)CC3)cc2)cc1` (configuration not stated) it was 66 °C; in that of `CC(=O)Nc1ccc(C(=O)OCC=CC(C)Oc2ccc(Oc3cnc4cc(Cl)ccc4n3)cc2)cc1` (configuration not stated), 62 to 68 °C. Next, `COc1cc(C(C)C)c2c(c1)S(=O)(=O)NC2=O`: 188 °C; `COc1cc(OC)nc(Oc2ccccc2C(=O)ON(C)C)n1`: 71 to 72.5 °C. As for `CCCC12CSC(SC1)SC2`, the melting point came to 139 °C.

In turn, `CCCCCCCCCCCCCCCCCCOC1=CC(OCCCOc2ccc(C(C)(C)C)cc2)(N(CC(=O)O)CC(=O)O)CC=C1` (configuration not stated) gave a melting point of 99 to 101 °C. Next, `CCn1c2ccc(C=NNc3ccccc3)cc2c2cc(C=NNc3ccccc3)ccc21`: 119 to 120 °C. In turn, `O=[N+]([O-])c1ccc(-n2nc3c(c2O)-c2ccccc2CC3)nc1` registered a melting point of 226 to 227 °C.

`CCOC(=O)CCC(=O)c1ccc(O)c(O)c1`: the melting point was in the range of 116 to 117 °C. Next, `CCCCCCCCCCCCCCCCCCNC(=O)SCC(COCc1ccccc1)OC` (configuration not stated): 40 to 41 °C; `CCN1C(=O)C(C)(C)C(=O)N(C)c2cc(CN(CCn3cc(C)c4oc(C)cc4c3=O)C(C)c3cccnc3C)ccc21` (configuration not stated): 169 to 170 °C. Next, `COc1cc(OC)nc(Oc2c(Cl)cc(Cl)cc2C=O)n1`: 132 to 133 °C; `CCOc1ccc(N(C)CCCN)cc1`: 97 to 98 °C. Next, `Cc1ccc(P(c2ccc(C)cc2)c2cccc3c2-c2c(cccc2P(c2ccc(C)cc2)c2ccc(C)cc2)OCCCO3)cc1`: 108 to 110 °C. On to `Fc1ccc(-c2[nH]cc(C3=CC4CCCCN4CC3)c2-c2ccncc2)cc1` (configuration not stated), for which the melting point lay within 223 to 224 °C.

`COc1ccc(/C=C/S(=O)(=O)CS(=O)(=O)/C=C/c2ccc(O)c(OC)c2)cc1O` came in with a melting point of 148 to 150 °C. Regarding `CC(=O)c1ccc(S(=O)(=O)N2CCCC2c2ccc(F)cc2)cc1` (racemic), the melting point is 148 °C. In the case of `CCCCCCCCNC(=O)C=CSC(C(=O)c1ccccc1)C(=O)c1cccn1C` (configuration not stated) it was 131 to 132 °C. In the case of `COC1(c2cc(F)cc(OCc3ccc(-n4ccnc4C)cc3)c2)CCOCC1` it was 168 °C. Next, `Cc1ccc(CNC(=O)c2nc(N3CCOCC3)n(C)c(=O)c2O)cc1F`: 166 to 167 °C; `NNC(=O)Nc1nccs1`: 166 to 167 °C; `CC(=O)Nc1ccc(CO)cc1[N+](=O)[O-]`: 114 to 115 °C. As to `CC(C)(C)OC(=O)Nc1ccc2[nH]c(C(=O)OCc3ccccc3)cc2c1`, the melting point lay in the range of 180 to 182 °C.

With `O=C(O)c1ccc2c(=O)n3nc(C(=O)O)ccc3nc2c1`, the melting point is > 360 °C. For `O=C(Nc1ccccc1)C1=C(N2CCCCC2)COC1=O`, the melting point was 157 to 158 °C.

For `Cc1oc(-c2ccc(C(F)(F)F)cc2)nc1-c1cccc(-c2ccc(O)cc2)c1`, the melting point fell in the range of 133 to 135 °C.

For `O=c1c(Cc2cccnc2)nc2cccnc2n1-c1cccc(-c2ccc3ccccc3c2)c1`, the melting point was 155 to 156 °C. Turning to `CC(C#N)(COc1ccc(Cl)cc1Cc1ccccc1)NC(=O)c1ccc(OC(F)(F)F)cc1` (configuration not stated), the melting point fell in the range of 103 to 104 °C.

`CCOC(=O)c1[nH]c(=O)n(C)c(=O)c1OCc1ccccc1` showed a melting point of 184 to 187 °C. In the case of `CCOC(=O)NN=C(CC)c1ccncc1` it was 147 °C; in that of `CCC(O)c1ccc(Cl)c2nc3n(c12)CCCN3c1ccc(Cl)cc1C(F)(F)F` (configuration not stated), 220 to 222 °C. `COC(=O)[C@@H](CCCc1ccc(OCc2nc(-c3ccco3)oc2C)c(OC)c1)OC(N)=O` had a melting point of 110 to 111 °C. In the case of `CC(O)(c1ccc(Cl)cc1)c1cc2ccccc2o1` (configuration not stated) it was 64 to 66 °C.

With `O=C(CCCN1CCN(c2ccc(CO)c(Cl)c2)CC1)c1cccs1`, the melting point was 131 to 133 °C.

In turn, `Cc1c(NC(=O)CC(C)(C)C)c(C)c2c(c1-c1cccs1)OCC2c1ccc(C(C)C)cc1` (configuration not stated) gave a melting point of 155 to 156 °C. As to `CCS(CCO)=NS(=O)(=O)c1ccccc1` (configuration not stated), the melting point was 75 to 76.5 °C. Next, `Cc1ccc(Cc2nc3c(nnn3C(C)CCCc3ccccc3)c(=O)[nH]2)cc1` (configuration not stated): 130 °C; `CC1(C)CCC(C)(C)c2cc(C#CCO)ccc21`: 84 to 85 °C. In the case of `CN1CCN(CCC(=O)Nc2ccc3c(c2)C(=O)c2cc(NC(=O)CCN4CCN(C)CC4)ccc2C3=O)CC1` it was 284 °C; in that of `CN(Cc1cc(C(F)(F)F)cc(C(F)(F)F)c1)C(=O)c1c(-c2ccc(F)cc2)c2cnccc2c(=O)n1C`, 136 to 138 °C. In the case of `COc1nc(C(Br)Br)c([N+](=O)[O-])cc1C` it was 58.7 to 61.2 °C; in that of `O=c1sc2ccccc2n1CO`, 101 to 103 °C.
